In patent US20240148821A1, “PHARMACEUTICAL USE OF CYCLIC PEPTIDE COMPOUND” (CHUGAI SEIYAKU KABUSHIKI KAISHA, priority 2021, published 2024):
Numbered stars: 1 amine (or outer) side, 2 acyl side, 3 side chain; on linkers, the order of the positions; unused ones are H or OH. Bridge positions count the residues as written; N and C are the ends. Square brackets hold non-standard residues; d marks the D form. Peptide text beside a SMILES is read from it. * marks the point of attachment. hPhe(3-Cl-4-CF3) = N[C@@H](CCc1ccc(C(F)(F)F)c(Cl)c1)C(=O)O; hPhe(3-F,4-CF3) = N[C@@H](CCc1ccc(C(F)(F)F)c(F)c1)C(=O)O; X33 = O=C([C@H](CCc1c(F)c(F)c(F)c(F)c1F)N[*:1])[*:2]; X65 = O=C([C@H](CCCc1ccc(C(F)(F)F)cc1)N[*:1])[*:2]; X1 = O=C([C@H](CCc1ccc(OC(F)F)c(F)c1)N[*:1])[*:2]; NMePhe(4-Cl) = CN[C@@H](Cc1ccc(Cl)cc1)C(=O)O; NMePhe(4-Me) = CN[C@@H](Cc1ccc(C)cc1)C(=O)O; NMedβ3hAla = C[C@H](CC(=O)[*:2])N(C)[*:1]; NMeGly(cPent) = CN[C@H](C(=O)O)C1CCCC1; Phe(3-I) = N[C@@H](Cc1cccc(I)c1)C(=O)O; NMeCha = CN[C@@H](CC1CCCCC1)C(=O)O; X81 = O=C(CN(CCOCC(F)F)[*:1])[*:2]; Hyp = O=C(O)[C@@H]1C[C@@H](O)CN1; NMeChg = CN[C@H](C(=O)O)C1CCCCC1; NMeF = CN[C@@H](Cc1ccccc1)C(=O)O; NMeI = CC[C@H](C)[C@H](NC)C(=O)O; NMeE = CN[C@@H](CCC(=O)O)C(=O)O; X43 = O=C(CN(CCCCCO)[*:1])[*:2]; NMeD = CN[C@@H](CC(=O)O)C(=O)O; NMeL = CN[C@@H](CC(C)C)C(=O)O; NMeV = CN[C@H](C(=O)O)C(C)C; d(β3hA) = C[C@@H](N)CC(=O)O; NMeS = CN[C@@H](CO)C(=O)O; Morpholide = C1CN(*)CCO1; NMeA = CN[C@@H](C)C(=O)O; Piperidide = C1CCN(*)CC1; Pyrrolidide = C1CCN(*)C1; Ac5c = NC1(C(=O)O)CCCC1; Aze = O=C(O)[C@@H]1CCN1; Sar = CNCC(=O)O; Propyl = CCC*

The compounds below were run against protein-protein interaction between Kras and SOS1 (biotin-tagged human Kras loaded with GDP, His-tagged human SOS1) (Homo sapiens (Human), UniProt P01116, G12D) (assay: Protein-protein interaction inhibition between Kras and SOS1 (KrasG12D-SOS PPI) using AlphaScreen). Conditions: AlphaScreen; biotin-tagged human Kras loaded with GDP, His-tagged human SOS1; read-out: KRAS G12D-SOS PPI IC50.
Type: biochemical

Structure (SMILES) | IC50 [nM]
CC[C@H](C)[C@@H]1NC(=O)[C@H](CC(C)C)N(C)C(=O)C[C@@H](C(=O)N2CCCCC2)N(C)C(=O)[C@H](C2CCCC2)N(C)C(=O)C2(CCCC2)NC(=O)[C@@H]2CCCN2C(=O)[C@H](CCc2ccc(OC(F)F)c(F)c2)NC(=O)CN(C)C(=O)[C@H](CC2CCCCC2)N(C)C(=O)[C@@H]2CCN2C(=O)[C@H](C)N(C)C1=O [Compound 2076] ([NMeL]I[NMeA][Aze][NMeCha][Sar][X1]P[Ac5c][NMeGly(cPent)][NMeD]-Piperidide; lactam N-11 (inferred); C-terminus assumed) | 2.5
CC[C@H](C)[C@@H]1NC(=O)[C@H](CC(C)C)N(C)C(=O)C[C@@H](C(=O)N2CCCC2)N(C)C(=O)[C@H]([C@@H](C)CC)N(C)C(=O)C2(CCCC2)NC(=O)[C@@H]2CCCN2C(=O)[C@H](CCc2ccc(C(F)(F)F)c(F)c2)NC(=O)CN(C)C(=O)[C@H](C2CCCC2)N(C)C(=O)[C@@H]2CCN2C(=O)[C@H](C)N(C)C1=O [Compound 313] ([NMeL]I[NMeA][Aze][NMeGly(cPent)][Sar][hPhe(3-F,4-CF3)]P[Ac5c][NMeI][NMeD]-Pyrrolidide; lactam N-11) | 4.2
CC[C@H](C)[C@@H]1NC(=O)[C@H](CC(C)C)N(C)C(=O)C[C@@H](C(=O)N2CCCCC2)N(C)C(=O)[C@H](C2CCCCC2)N(C)C(=O)C2(CCCC2)NC(=O)CN(CCCCCO)C(=O)[C@H](CCc2ccc(C(F)(F)F)c(Cl)c2)NC(=O)CN(C)C(=O)[C@H](CC2CCCCC2)N(C)C(=O)CN(C)C(=O)CN(C)C1=O [Compound 2049, (11S,17S,26S,29S,33S,36S)-11-[2-[3-chloro-4-(trifluoromethyl)phenyl]ethyl]-36-cyclohexyl-17-(cyclohexylmethyl)-9-(5-hydroxypentyl)-29-isobutyl-15,18,21,24,30,34,37-heptamethyl-26-[(1S)-1-methylpropyl]-33-(piperidine-1-carbonyl)-6,9,12,15,18,21,24,27,30,34,37-undecazaspiro[4.33]octatriacontane-7,10,13,16,19,22,25,28,31,35,38-undecone] ([NMeL]I[Sar][Sar][NMeCha][Sar][hPhe(3-Cl-4-CF3)][X43][Ac5c][NMeChg][NMeD]-Piperidide; lactam N-11) | 4
CC[C@H](C)[C@@H]1NC(=O)[C@H](CC(C)C)N(C)C(=O)C[C@@H](C(=O)N2CCOCC2)N(C)C(=O)[C@H](C2CCCC2)N(C)C(=O)C2(CCCC2)NC(=O)[C@H](CCC(=O)N(C)C)N(C)C(=O)[C@H](CCc2ccc(C(F)(F)F)c(Cl)c2)NC(=O)CN(C)C(=O)[C@H](CC2CCCCC2)N(C)C(=O)[C@@H]2CCN2C(=O)[C@H](C)N(C)C1=O [Compound 2108, 3-[(3S,6S,9S,13S,16S,22S,25S,31S,34S)-25-[2-[3-chloro-4-(trifluoromethyl)phenyl]ethyl]-31-(cyclohexylmethyl)-16-cyclopentyl-9-isobutyl-3,4,10,14,17,23,29,32-octamethyl-6-[(1S)-1-methylpropyl]-13-(morpholine-4-carbonyl)-2,5,8,11,15,18,21,24,27,30,33-undecaoxo-spiro[1,4,7,10,14,17,20,23,26,29,32-undecazabicyclo[32.2.0]hexatriacontane-19,1′-cyclopentane]-22-yl]-N,N-dimethyl-propanamide] ([NMeL]I[NMeA][Aze][NMeCha][Sar][hPhe(3-Cl-4-CF3)][NMeE](NMe2)[Ac5c][NMeGly(cPent)][NMeD]-Morpholide; lactam N-11) | 7.9
CC[C@H](C)[C@@H]1NC(=O)[C@H](CC(C)C)N(C)C(=O)C[C@@H](C(=O)N2CCCCC2)N(C)C(=O)[C@H]([C@@H](C)CC)N(C)C(=O)C2(CCCC2)NC(=O)[C@@H]2CCCN2C(=O)[C@H](CCc2ccc(C(F)(F)F)c(F)c2)NC(=O)CN(C)C(=O)[C@H](C2CCCC2)N(C)C(=O)[C@@H]2CCN2C(=O)[C@H](C)N(C)C1=O [Compound 674] ([NMeL]I[NMeA][Aze][NMeGly(cPent)][Sar][hPhe(3-F,4-CF3)]P[Ac5c][NMeI][NMeD]-Piperidide; lactam N-11) | 5.6
CC[C@H](C)[C@@H]1NC(=O)[C@H](CC(C)C)N(C)C(=O)C[C@@H](C(=O)N2CCOCC2)N(C)C(=O)[C@H](C2CCCC2)N(C)C(=O)C2(CCCC2)NC(=O)[C@H](CCC(=O)N2CCCCC2)N(C)C(=O)[C@H](CCc2ccc(C(F)(F)F)c(Cl)c2)NC(=O)CN(C)C(=O)[C@H](CC2CCCCC2)N(C)C(=O)[C@@H]2CCN2C(=O)[C@H](C)N(C)C1=O [Compound 2112] ([NMeL]I[NMeA][Aze][NMeCha][Sar][hPhe(3-Cl-4-CF3)][NMeE](Piperidide)[Ac5c][NMeGly(cPent)][NMeD]-Morpholide; lactam N-11) | 11
CC[C@H](C)[C@@H]1NC(=O)[C@H](CC(C)C)N(C)C(=O)C[C@@H](C)NC(=O)[C@H](C(C)C)N(C)C(=O)C2(CCCC2)NC(=O)[C@@H]2CCCN2C(=O)[C@H](CCc2ccc(C(F)(F)F)c(Cl)c2)NC(=O)CN(C)C(=O)[C@H](Cc2ccc(Cl)cc2)N(C)C(=O)[C@@H]2CCN2C(=O)CN(C)C1=O [Compound 207] (cyclo([Ac5c][NMeV][d(β3hA)][NMeL]I[Sar][Aze][NMePhe(4-Cl)][Sar][hPhe(3-Cl-4-CF3)]P)) | 3
CC[C@H](C)[C@@H]1NC(=O)[C@H](CC(C)C)N(C)C(=O)C[C@@H](C(=O)N2CCCCC2)N(C)C(=O)[C@H](C2CCCCC2)N(C)C(=O)C2(CCCC2)NC(=O)CN(CCOCC(F)F)C(=O)[C@H](CCc2ccc(C(F)(F)F)c(Cl)c2)NC(=O)CN(C)C(=O)[C@H](CC2CCCCC2)N(C)C(=O)CN(C)C(=O)CN(C)C1=O [Compound 2036] ([NMeL]I[Sar][Sar][NMeCha][Sar][hPhe(3-Cl-4-CF3)][X81][Ac5c][NMeChg][NMeD]-Piperidide; lactam N-11 (inferred); C-terminus assumed) | 1.1
CC[C@H](C)[C@@H]1NC(=O)[C@H](C)N(C)C(=O)C[C@@H](C)NC(=O)[C@H](C2CCCC2)N(C)C(=O)C2(CCCC2)NC(=O)[C@@H]2CCCN2C(=O)[C@H](CCc2ccc(C(F)(F)F)c(Cl)c2)NC(=O)[C@H]2CCCN2C(=O)[C@H](Cc2ccc(C)cc2)N(C)C(=O)CN(C)C(=O)CN(C)C1=O [Compound 1525] (cyclo([Ac5c][NMeGly(cPent)][d(β3hA)][NMeA]I[Sar][Sar][NMePhe(4-Me)][dP][hPhe(3-Cl-4-CF3)]P)) | 100
CCCOC[C@H]1C(=O)N(C)CC(=O)N[C@@H](CCc2ccc(C(F)(F)F)c(F)c2)C(=O)N2CCC[C@H]2C(=O)NC2(CCCC2)C(=O)N(C)[C@@H]([C@@H](C)CC)C(=O)N(C)[C@H](C)CC(=O)N(C)[C@@H](CC(C)C)C(=O)N[C@@H]([C@@H](C)CC)C(=O)N(C)[C@@H](C)C(=O)N2CC[C@H]2C(=O)N1C [Compound 694] (cyclo([Ac5c][NMeI][NMedβ3hAla][NMeL]I[NMeA][Aze][NMeS](Propyl)[Sar][hPhe(3-F,4-CF3)]P)) | 14
CC[C@H](C)[C@@H]1NC(=O)[C@H](C)N(C)C(=O)C[C@@H](C)NC(=O)[C@H](CC(C)C)N(C)C(=O)[C@H](Cc2ccccc2)N(C)C(=O)[C@H](CC(C)C)NC(=O)[C@H](CCc2c(F)c(F)c(F)c(F)c2F)NC(=O)CN(C)C(=O)[C@H](Cc2ccc(Cl)cc2)N(C)C(=O)CN(C)C(=O)CN(C)C1=O [Compound 2091] (cyclo(I[Sar][Sar][NMePhe(4-Cl)][Sar][X33]L[NMeF][NMeL][d(β3hA)][NMeA])) | 270
CC[C@H](C)[C@@H]1NC(=O)[C@H](CC(C)C)N(C)C(=O)C[C@@H](C(=O)N2CCCCC2)N(C)C(=O)[C@H](C(C)C)N(C)C(=O)C2(CCCC2)NC(=O)[C@@H]2CCCN2C(=O)[C@H](CCc2ccc(C(F)(F)F)c(Cl)c2)NC(=O)CN(C)C(=O)[C@H](CC2CCCCC2)N(C)C(=O)[C@@H]2CCN2C(=O)[C@H](Cc2ccccc2)N(C)C1=O [Compound 1561] ([NMeL]I[NMeF][Aze][NMeCha][Sar][hPhe(3-Cl-4-CF3)]P[Ac5c][NMeV][NMeD]-Piperidide; lactam N-11) | 33
CC[C@H](C)[C@@H]1NC(=O)[C@H](C2CCCCC2)N(C)C(=O)C[C@@H](C(=O)N2CCCCC2)N(C)C(=O)[C@H](C(C)C)N(C)C(=O)C2(CCCC2)NC(=O)[C@@H]2CCCN2C(=O)[C@H](CCc2ccc(C(F)(F)F)c(Cl)c2)NC(=O)CN(C)C(=O)[C@H](CC2CCCCC2)N(C)C(=O)[C@@H]2CCN2C(=O)[C@H](C)N(C)C1=O [Compound 58] ([NMeChg]I[NMeA][Aze][NMeCha][Sar][hPhe(3-Cl-4-CF3)]P[Ac5c][NMeV][NMeD]-Piperidide; lactam N-11) | 28
CCO[C@@H]1C[C@H]2C(=O)N(C)[C@@H](Cc3ccccc3)C(=O)N(C)[C@@H](CC(C)C)C(=O)N[C@H](C(=O)N3CCCC3)CC(=O)N(C)[C@@H](C)C(=O)N[C@@H]([C@@H](C)CC)C(=O)N(C)CC(=O)N(C)CC(=O)N(C)[C@@H](Cc3ccc(Cl)cc3)C(=O)N(C)CC(=O)N[C@@H](Cc3cccc(I)c3)C(=O)N2C1 [Compound 634] ([NMeA]I[Sar][Sar][NMePhe(4-Cl)][Sar][Phe(3-I)][Hyp](Et)[NMeF][NMeL]D-Pyrrolidide; lactam N-11) | 260
CC[C@H](C)[C@@H]1NC(=O)[C@H](C)N(C)C(=O)C[C@@H](C(=O)N2CCCCC2)N(C)C(=O)[C@H](C2CCCCC2)N(C)C(=O)C2(CCCC2)NC(=O)[C@@H]2CCCN2C(=O)[C@H](CCCc2ccc(C(F)(F)F)cc2)NC(=O)CN(C)C(=O)[C@H](CC2CCCCC2)N(C)C(=O)CN(C)C(=O)CN(C)C1=O [Compound 2055, (3S,9S,18S,21S,25S,28S,34S)-28-cyclohexyl-9-(cyclohexylmethyl)-7,10,13,16,21,22,26,29-octamethyl-18-[(1S)-1-methylpropyl]-25-(piperidine-1-carbonyl)-3-[3-[4-(trifluoromethyl)phenyl]propyl]spiro[1,4,7,10,13,16,19,22,26,29,32-undecazabicyclo[32.3.0]heptatriacontane-31,1′-cyclopentane]-2,5,8,11,14,17,20,23,27,30,33-undecone] ([NMeA]I[Sar][Sar][NMeCha][Sar][X65]P[Ac5c][NMeChg][NMeD]-Piperidide; lactam N-11) | 27
